Source: the supplement of paper PMC10307832

How the values were obtained:
Assay in all cases: relative viability (nuclei count vs DMSO), 5 days (fraction); higher = more cells survive
EBC-1 = system: EBC-1
Procedure, shortened: (§1)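 Values are medians from duplicate plates. Each reflects relative viability, defined as the nuclei count of treated wells over that of vehicle wells. Lung cancer cell lines in 1536-well plates were pin-tool dosed one day after seeding with one drug alone or with a fixed anchor-drug dose plus five library-drug doses (not always all listed) in √10 steps, then fixed, stained and imaged at 4× after 5 days.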

NCI-H1703 = system: NCI-H1703
Procedure, shortened: as §1

Calu-6 = system: Calu-6
Procedure, shortened: as §1

A549 = system: A549
Procedure, shortened: as §1

NCI-H1299 = system: NCI-H1299
Procedure, shortened: as §1

NCI-H1563 = system: NCI-H1563
Procedure, shortened: as §1

IA-LM = system: IA-LM
Procedure, shortened: as §1

O=c1[nH]c2ccccc2n1C1CCN(CCCC(c2ccc(F)cc2)c2ccc(F)cc2)CC1 [Pimozide] + C[C@]1(O)C[C@@H](c2nc(-c3ccc4ccc(-c5ccccc5)nc4c3)c3c(N)nccn32)C1 [Linsitinib] (partner 1 µM)
relative viability (EBC-1; first compound 0.08 µM): 0.867 | relative viability (EBC-1; first compound 0.253 µM): 0.844 | relative viability (EBC-1; first compound 0.8 µM): 0.766 | relative viability (EBC-1; first compound 2.53 µM): 0.821 | relative viability (EBC-1; first compound 8 µM): 0.892 | relative viability (NCI-H1703; first compound 0.08 µM): 0.637 | relative viability (NCI-H1703; first compound 0.253 µM): 0.544 | relative viability (NCI-H1703; first compound 0.8 µM): 0.637 | relative viability (NCI-H1703; first compound 2.53 µM): 0.514 | relative viability (NCI-H1703; first compound 8 µM): 0.553 | relative viability (Calu-6; first compound 0.08 µM): 0.986 | relative viability (Calu-6; first compound 0.253 µM): 0.94 | relative viability (Calu-6; first compound 0.8 µM): 0.843 | relative viability (Calu-6; first compound 2.53 µM): 0.881 | relative viability (Calu-6; first compound 8 µM): 0.913 | relative viability (A549; first compound 0.08 µM): 0.426 | relative viability (A549; first compound 0.253 µM): 0.497 | relative viability (A549; first compound 0.8 µM): 0.627 | relative viability (A549; first compound 2.53 µM): 0.548 | relative viability (A549; first compound 8 µM): 0.619 | relative viability (NCI-H1299; first compound 0.08 µM): 0.949 | relative viability (NCI-H1299; first compound 0.253 µM): 0.945 | relative viability (NCI-H1299; first compound 0.8 µM): 0.923 | relative viability (NCI-H1299; first compound 2.53 µM): 0.899 | relative viability (NCI-H1299; first compound 8 µM): 0.949 | relative viability (NCI-H1563; first compound 0.08 µM): 1.12 | relative viability (NCI-H1563; first compound 0.253 µM): 1.19 | relative viability (NCI-H1563; first compound 0.8 µM): 1.35 | relative viability (NCI-H1563; first compound 2.53 µM): 1.16 | relative viability (NCI-H1563; first compound 8 µM): 0.861 | relative viability (IA-LM; first compound 0.08 µM): 0.652 | relative viability (IA-LM; first compound 0.253 µM): 0.566 | relative viability (IA-LM; first compound 0.8 µM): 0.356 | relative viability (IA-LM; first compound 2.53 µM): 0.456 | relative viability (IA-LM; first compound 8 µM): 0.759

O=C(O)CCCCC(CCSCc1ccccc1)SCc1ccccc1 (configuration not stated) [CPI-613] + CS(=O)(=O)CCNCc1ccc(-c2ccc3ncnc(Nc4ccc(OCc5cccc(F)c5)c(Cl)c4)c3c2)o1 [Lapatinib] (partner 2 µM)
relative viability (EBC-1; first compound 5 µM): 0.252 | relative viability (EBC-1; first compound 15.81 µM): 0.213 | relative viability (EBC-1; first compound 50 µM): 0.212 | relative viability (EBC-1; first compound 158.11 µM): 0.175 | relative viability (EBC-1; first compound 500 µM): 0.145 | relative viability (NCI-H1703; first compound 5 µM): 0.943 | relative viability (NCI-H1703; first compound 15.81 µM): 1.11 | relative viability (NCI-H1703; first compound 50 µM): 1.1 | relative viability (NCI-H1703; first compound 158.11 µM): 0.452 | relative viability (NCI-H1703; first compound 500 µM): 0.274 | relative viability (Calu-6; first compound 5 µM): 1.04 | relative viability (Calu-6; first compound 15.81 µM): 1.03 | relative viability (Calu-6; first compound 50 µM): 0.866 | relative viability (Calu-6; first compound 158.11 µM): 0.775 | relative viability (Calu-6; first compound 500 µM): 0.563 | relative viability (A549; first compound 5 µM): 0.933 | relative viability (A549; first compound 15.81 µM): 0.967 | relative viability (A549; first compound 50 µM): 0.787 | relative viability (A549; first compound 158.11 µM): 0.348 | relative viability (A549; first compound 500 µM): 0.249 | relative viability (NCI-H1299; first compound 5 µM): 0.923 | relative viability (NCI-H1299; first compound 15.81 µM): 0.945 | relative viability (NCI-H1299; first compound 50 µM): 0.965 | relative viability (NCI-H1299; first compound 158.11 µM): 0.899 | relative viability (NCI-H1299; first compound 500 µM): 0.888 | relative viability (NCI-H1563; first compound 5 µM): 1 | relative viability (NCI-H1563; first compound 15.81 µM): 0.886 | relative viability (NCI-H1563; first compound 50 µM): 0.998 | relative viability (NCI-H1563; first compound 158.11 µM): 0.427 | relative viability (NCI-H1563; first compound 500 µM): 0.103 | relative viability (IA-LM; first compound 5 µM): 0.694 | relative viability (IA-LM; first compound 15.81 µM): 0.802 | relative viability (IA-LM; first compound 50 µM): 0.665 | relative viability (IA-LM; first compound 158.11 µM): 0.269 | relative viability (IA-LM; first compound 500 µM): 0.208

Cc1cnc(-c2cnc(NCCNc3ccc(C#N)cn3)nc2-c2ccc(Cl)cc2Cl)[nH]1 + CS(=O)(=O)N1CCN(Cc2cc3nc(-c4cccc5[nH]ncc45)nc(N4CCOCC4)c3s2)CC1 [Pictilisib] (partner 1 µM)
relative viability (EBC-1; first compound 0.08 µM): 0.421 | relative viability (EBC-1; first compound 0.253 µM): 0.368 | relative viability (EBC-1; first compound 0.8 µM): 0.549 | relative viability (EBC-1; first compound 2.53 µM): 0.567 | relative viability (NCI-H1703; first compound 0.08 µM): 0.256 | relative viability (NCI-H1703; first compound 0.253 µM): 0.252 | relative viability (NCI-H1703; first compound 0.8 µM): 0.23 | relative viability (NCI-H1703; first compound 2.53 µM): 0.314 | relative viability (Calu-6; first compound 0.08 µM): 0.923 | relative viability (Calu-6; first compound 0.253 µM): 0.934 | relative viability (Calu-6; first compound 0.8 µM): 1.05 | relative viability (Calu-6; first compound 2.53 µM): 0.911 | relative viability (A549; first compound 0.08 µM): 0.597 | relative viability (A549; first compound 0.253 µM): 0.482 | relative viability (A549; first compound 0.8 µM): 0.764 | relative viability (A549; first compound 2.53 µM): 0.775 | relative viability (NCI-H1299; first compound 0.08 µM): 0.822 | relative viability (NCI-H1299; first compound 0.253 µM): 0.754 | relative viability (NCI-H1299; first compound 0.8 µM): 0.861 | relative viability (NCI-H1299; first compound 2.53 µM): 0.426 | relative viability (NCI-H1563; first compound 0.08 µM): 0.649 | relative viability (NCI-H1563; first compound 0.253 µM): 0.72 | relative viability (NCI-H1563; first compound 0.8 µM): 0.709 | relative viability (NCI-H1563; first compound 2.53 µM): 0.725 | relative viability (IA-LM; first compound 0.08 µM): 0.362 | relative viability (IA-LM; first compound 0.253 µM): 0.408 | relative viability (IA-LM; first compound 2.53 µM): 0.483
